Test results from PubChem BioAssay AID743305 (Broad Institute, 2014).
“And” between values parts separate entries of the source, which are not always exact repeats. Equal values may be shown once. The source made the active and inactive calls. The rule behind the calls is not given here.

Legend:
[1] = test system: Cryptococcus neoformans cell lysis, plate reader; assay: Cryptococcus neoformans cell lysis induction, dose response, plate reader, dry powder, set 2 (AID 743305)
[2] = as above; conditions: Cryptococcus neoformans cell lysis, plate reader; at 35 µM (top of the series)

Question: With `Cc1ccc(OCCn2cnc3ccccc32)c(C(C)C)c1` as the compound, how does the AC50 [1] read?
Answer: The AC50 was 32.8 µM.

Question: For `Cc1cc2ncn(CCOc3ccc4c(c3)CCC4)c2cc1C`, which AC50 [1] is on record?
Answer: Its AC50 is 3.63 µM.

Question: For `COc1ccc(OCCn2cnc3ccccc32)cc1`, which activity change, negative = lysis [2] is on record?
Answer: The activity change, negative = lysis was -13.3% (inactive).

Question: For `Cc1ccc(C(C)C)c(OCCn2c(N)nc3ccccc32)c1`, which AC50 [1] is on record?
Answer: The AC50 was 21.9 µM.

Question: Which AC50 [1] does the source give for `Cc1cccc(OCCn2c(=S)[nH]c3c(F)cccc32)c1` here?
Answer: Its AC50 is 8.18 µM and 7.2 µM.

Question: Which AC50 [1] does the source give for `c1ccc(COc2ccc(OCCn3cnc4ccccc43)cc2)cc1` here?
Answer: The AC50 was 24.4 µM.

Question: With `COc1ccccc1OCCn1c(=S)[nH]c2ccccc21` as the compound, how does the activity change, negative = lysis [2] read?
Answer: The activity change, negative = lysis was -5.77% (inactive).

Question: With `S=c1[nH]c2cccc(Cl)c2n1CCOc1ccccc1` as the compound, how does the AC50 [1] read?
Answer: The AC50 was 2.95 µM.

Question: For `FC(F)(F)c1cccc(OCCn2cnc3ccccc32)c1`, which AC50 [1] is on record?
Answer: The AC50 was 29.7 µM.

Question: Which AC50 [1] does the source give for `Cc1cccc(OCCn2c(=S)[nH]c3ccccc32)c1` here?
Answer: Its AC50 is 8.47 µM.

Question: Which AC50 [1] does the source give for `Cc1cccc(OCCn2cnc3ccccc32)c1` here?
Answer: Its AC50 is 34.1 µM.

Question: For `S=c1[nH]c2cc(Cl)ccc2n1CCOc1ccccc1`, which AC50 [1] is on record?
Answer: Its AC50 is 36 µM.

Question: Which AC50 [1] does the source give for `NCC(=O)Nc1ccc(-n2nc(C(F)(F)F)cc2-c2ccc3c(ccc4ccccc43)c2)cc1` here?
Answer: Its AC50 is 10.7 µM.

Question: For `Cc1ccc(OCCn2cnc3cc(C)c(C)cc32)cc1`, which AC50 [1] is on record?
Answer: Its AC50 is 5.54 µM.

Question: Which AC50 [1] does the source give for `CC(C)c1ccccc1OCCn1c(=S)[nH]c2ccccc21` here?
Answer: Its AC50 is 4.7 µM.

Question: With `Cc1cc2ncn(CCOc3ccccc3C)c2cc1C` as the compound, how does the AC50 [1] read?
Answer: Its AC50 is 8.4 µM.

Question: Which AC50 [1] does the source give for `Cc1ccc(OCCn2cnc3ccccc32)c(C)c1` here?
Answer: Its AC50 is 14.6 µM.

Question: Which AC50 [1] does the source give for `Cc1ccc(C(C)C)c(OCCn2c(=O)[nH]c3ccccc32)c1` here?
Answer: Its AC50 is > 70 µM (inactive).

Question: For `Cc1ccc(C(C)C)c(OCCn2c(NC#N)nc3ccccc32)c1`, which AC50 [1] is on record?
Answer: The AC50 was > 70 µM (inactive).

Question: For `Cc1cccc(OCCn2c(=S)[nH]c3cc(F)ccc32)c1`, which AC50 [1] is on record?
Answer: The AC50 was 6.33 µM and 6 µM.

Question: Which AC50 [1] does the source give for `Cc1cc2ncn(CCOc3ccccc3)c2cc1C` here?
Answer: Its AC50 is 14.9 µM.

Question: With `Clc1ccc(OCCn2cnc3ccccc32)cc1` as the compound, how does the AC50 [1] read?
Answer: The AC50 was 29 µM.

Question: Which AC50 [1] does the source give for `CC(C)Oc1cccc(OCCn2cnc3ccccc32)c1` here?
Answer: Its AC50 is 13.3 µM.

Question: With `COCc1nc2ccccc2n1CCOc1ccc(C(C)(C)C)cc1` as the compound, how does the AC50 [1] read?
Answer: Its AC50 is 28.6 µM.

Question: For `c1ccc2c(c1)ncn2CCOc1ccc2c(c1)CCC2`, which AC50 [1] is on record?
Answer: Its AC50 is 3.3 µM.

Question: With `CC(C)c1ccccc1NCCn1c(=S)[nH]c2ccccc21` as the compound, how does the AC50 [1] read?
Answer: The AC50 was > 70 µM (inactive).

Question: Which AC50 [1] does the source give for `CC(C)Oc1ccc(OCCn2c(=S)[nH]c3ccccc32)cc1` here?
Answer: The AC50 was 12.1 µM.

Question: Which AC50 [1] does the source give for `CSc1nc2ccccc2n1CCOc1ccc(C)cc1` here?
Answer: The AC50 was 17.7 µM.

Question: Which AC50 [1] does the source give for `Cc1ccc(C(C)C)c(OCCn2c(=S)[nH]c3ccccc32)c1` here?
Answer: Its AC50 is 3.96 µM.

Question: Which activity change, negative = lysis [2] does the source give for `CCc1nc2ccccc2n1CCOc1ccccc1` here?
Answer: Its activity change, negative = lysis is -12.5% (inactive).

Question: For `Fc1ccc(OCCn2c(=S)[nH]c3ccccc32)cc1`, which AC50 [1] is on record?
Answer: The AC50 was 36.6 µM.

Question: For `Cc1ccc2c(c1)[nH]c(=S)n2CCOc1ccccc1`, which AC50 [1] is on record?
Answer: The AC50 was 7.79 µM.

Question: For `O=S(=O)(c1ccc(OCCn2cnc3ccccc32)cc1)N1CCOCC1`, which activity change, negative = lysis [2] is on record?
Answer: Its activity change, negative = lysis is -16.9% (inactive).

Question: Which AC50 [1] does the source give for `Fc1cccc2c1[nH]c(=S)n2CCOc1ccccc1` here?
Answer: The AC50 was 13.9 µM.

Question: With `OCc1nc2ccccc2n1CCOc1ccccc1` as the compound, how does the activity change, negative = lysis [2] read?
Answer: Its activity change, negative = lysis is -11.6% (inactive).

Question: Which AC50 [1] does the source give for `CCSc1nc2ccccc2n1CCOc1ccccc1` here?
Answer: Its AC50 is 35 µM.

Question: For `CS(=O)(=O)c1ccc(OCCn2cnc3ccccc32)cc1`, which activity change, negative = lysis [2] is on record?
Answer: The activity change, negative = lysis was -6.3% (inactive).

Question: Which AC50 [1] does the source give for `CC(C)(C)c1ccc(OCCn2cnc3ccccc32)c(Cl)c1` here?
Answer: The AC50 was 10.1 µM.

Question: Which AC50 [1] does the source give for `CSc1nc2ccccc2n1CCOc1ccccc1` here?
Answer: Its AC50 is 29.5 µM.

Question: With `Cc1ccc(C(C)C)c(OCCn2c(CO)nc3ccccc32)c1` as the compound, how does the AC50 [1] read?
Answer: The AC50 was > 70 µM (inactive).

Question: Which AC50 [1] does the source give for `Cc1cccc(OCCn2c(=S)[nH]c3ccc(C(F)(F)F)cc32)c1` here?
Answer: The AC50 was > 70 µM (inactive).

Question: Which AC50 [1] does the source give for `Clc1ccc(OCCn2cnc3ccccc32)c(Cl)c1` here?
Answer: The AC50 was 11.8 µM.

Question: For `CC(C)Oc1ccc(OCCn2cnc3ccccc32)cc1`, which AC50 [1] is on record?
Answer: Its AC50 is 24.3 µM.

Question: For `c1ccc(-c2ccc(OCCn3cnc4ccccc43)cc2)cc1`, which activity change, negative = lysis [2] is on record?
Answer: The activity change, negative = lysis was -7.29% (inactive).

Question: For `CCCc1nc2ccccc2n1CCOc1ccccc1`, which AC50 [1] is on record?
Answer: The AC50 was 35.7 µM.

Question: Which AC50 [1] does the source give for `CCCCc1nc2ccccc2n1CCOc1ccccc1` here?
Answer: The AC50 was 24.3 µM.

Question: For `CC(C)(C)c1ccc(OCCn2cnc3ccccc32)cc1`, which AC50 [1] is on record?
Answer: The AC50 was 11 µM.

Question: For `Fc1ccc2c(c1)[nH]c(=S)n2CCOc1ccccc1`, which AC50 [1] is on record?
Answer: The AC50 was 12.4 µM and 15.5 µM.
